In ChEMBL document CHEMBL1201862, “PubChem BioAssay data set” (2004):
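Grown in 96-well plates, cells were treated for 48 hours with each compound at five concentrations. Insufficient inhibition: endpoint recorded as highest concentration tested. GI50 is the concentration that inhibits growth by half.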 Calls of active or inactive are those of the source. No stated cut-off is given here; in the data, active = GI50 up to about 1.1 µM and inactive = higher.

Key:
Assay in all cases: NCI-60 cell line screen, 48 h
KM12 = tested on: KM12
HT-29 = tested on: HT-29
HCT-116 = tested on: HCT-116
TK-10 = tested on: TK-10
SF-295 = tested on: SF-295
786-0 = tested on: 786-0
CCRF-CEM = tested on: CCRF-CEM
SF-268 = tested on: SF-268
CAKI-1 = tested on: CAKI-1
MDA-MB-435 = tested on: MDA-MB-435
SNB-19 = tested on: SNB-19
COLO 205 = tested on: COLO 205
LOX IMVI = tested on: LOX IMVI
NCI-H522 = tested on: NCI-H522
HL-60 = tested on: HL-60
HOP-62 = tested on: HOP-62
OVCAR-3 = tested on: OVCAR-3
SR = tested on: SR
NCI-H460 = tested on: NCI-H460

Measured: GI50

OCC(O)COCn1cc(Cn2ncc3c(SCc4ccccc4)ncnc32)nn1 (stereo unspecified)
inactive: KM12 > 100 µM | HT-29 > 100 µM | HCT-116 > 100 µM | TK-10 > 100 µM | SF-295 > 100 µM | 786-0 > 100 µM | CCRF-CEM > 100 µM | SF-268 51.4 µM | CAKI-1 > 100 µM | MDA-MB-435 > 100 µM | SNB-19 > 100 µM | COLO 205 > 100 µM | LOX IMVI > 100 µM | NCI-H522 27.2 µM | HL-60 > 100 µM | HOP-62 > 100 µM | OVCAR-3 > 100 µM

O=c1c2ccccc2nc(N/N=C/c2ccc(Cl)cc2)n1-c1ccccc1
inactive: HT-29 > 100 µM | SR > 100 µM | HCT-116 > 100 µM | TK-10 > 100 µM | SF-295 > 100 µM | 786-0 > 100 µM | CCRF-CEM > 100 µM | SF-268 80.2 µM | CAKI-1 > 100 µM | MDA-MB-435 > 100 µM | SNB-19 36.5 µM | COLO 205 > 100 µM | LOX IMVI > 100 µM | NCI-H522 67 µM | HL-60 > 100 µM | HOP-62 38.1 µM | OVCAR-3 > 100 µM | NCI-H460 75 µM

O=C1C=CC(=O)C2=C1[C@@H](O)C1CC=CC3C(=O)O[C@@H]2C31 (stereo partly specified)
inactive: KM12 19.8 µM | HT-29 24.3 µM | SR 4.65 µM | HCT-116 19.8 µM | TK-10 28.2 µM | SF-295 39.5 µM | 786-0 26.2 µM | CCRF-CEM 8.2 µM | SF-268 43.1 µM | CAKI-1 20.4 µM | SNB-19 > 100 µM | COLO 205 20.3 µM | LOX IMVI 20.6 µM | NCI-H522 15.5 µM | HL-60 18.2 µM | HOP-62 > 100 µM | OVCAR-3 21 µM | NCI-H460 > 55.8 µM

O=S(=O)(c1ccccc1)n1cc(C[P+](c2ccccc2)(c2ccccc2)c2ccccc2)c2ccccc21
inactive: KM12 3.6 µM | HT-29 3.4 µM | SR 5.2 µM | HCT-116 3.81 µM | TK-10 3.69 µM | SF-295 12 µM | 786-0 5.04 µM | CCRF-CEM 2.43 µM | SF-268 5.66 µM | CAKI-1 13.9 µM | SNB-19 2.61 µM | COLO 205 1.99 µM | LOX IMVI 3.57 µM | NCI-H522 2.36 µM | HL-60 2.04 µM | HOP-62 3.19 µM | OVCAR-3 2.95 µM | NCI-H460 2.91 µM

CSCCOC(=O)C(=[N+]=[N-])c1ccc([N+](=O)[O-])cc1
inactive: KM12 > 100 µM | HT-29 > 100 µM | SR > 100 µM | HCT-116 > 100 µM | TK-10 > 100 µM | SF-295 > 100 µM | 786-0 > 100 µM | CCRF-CEM > 100 µM | SF-268 > 100 µM | CAKI-1 > 100 µM | SNB-19 > 100 µM | COLO 205 > 100 µM | LOX IMVI > 100 µM | NCI-H522 > 100 µM | HL-60 > 100 µM | HOP-62 > 100 µM | OVCAR-3 > 100 µM | NCI-H460 > 100 µM

CC(=O)OC1CCC2OOC1O2 (stereo unspecified)
inactive: KM12 > 100 µM | HT-29 > 100 µM | SR > 100 µM | HCT-116 > 100 µM | TK-10 > 100 µM | SF-295 > 100 µM | 786-0 > 100 µM | CCRF-CEM > 100 µM | SF-268 > 100 µM | CAKI-1 > 100 µM | SNB-19 > 100 µM | COLO 205 > 100 µM | LOX IMVI > 100 µM | NCI-H522 > 100 µM | HL-60 > 100 µM | HOP-62 > 100 µM | OVCAR-3 > 100 µM | NCI-H460 > 100 µM

O=C(/N=N/c1ccccc1Br)NNc1ccccc1Br
inactive: HT-29 > 100 µM | SR 32.8 µM | HCT-116 24.7 µM | TK-10 > 100 µM | 786-0 72.1 µM | CCRF-CEM 31 µM | SF-268 > 100 µM | CAKI-1 33 µM | MDA-MB-435 84.5 µM | SNB-19 > 100 µM | LOX IMVI 91.4 µM | NCI-H522 40.6 µM | HL-60 23.6 µM | HOP-62 > 100 µM | OVCAR-3 86.3 µM | NCI-H460 70.3 µM

Nc1nc(N)nc(-c2cnccn2)n1
inactive: KM12 > 100 µM | SR > 100 µM | HCT-116 > 100 µM | TK-10 > 100 µM | SF-295 > 100 µM | 786-0 > 100 µM | CCRF-CEM > 100 µM | SF-268 > 100 µM | CAKI-1 > 100 µM | MDA-MB-435 > 100 µM | SNB-19 > 100 µM | COLO 205 > 100 µM | LOX IMVI > 100 µM | NCI-H522 > 100 µM | HOP-62 > 100 µM | OVCAR-3 > 100 µM | NCI-H460 > 100 µM

COC(=O)[C@@]1(C)/C(=N/NS(=O)(=O)c2ccc(C)cc2)CCC[C@@H]1C
inactive: KM12 > 100 µM | HT-29 > 100 µM | SR 19.8 µM | HCT-116 > 100 µM | TK-10 > 100 µM | SF-295 > 100 µM | 786-0 > 100 µM | CCRF-CEM 27.8 µM | SF-268 > 100 µM | CAKI-1 > 100 µM | SNB-19 > 100 µM | COLO 205 69.2 µM | LOX IMVI 14.3 µM | NCI-H522 41.8 µM | HL-60 6.37 µM | HOP-62 > 100 µM | OVCAR-3 > 100 µM | NCI-H460 34 µM

CC(CCC(=O)O)c1ccc(Br)cc1 (stereo unspecified)
inactive: KM12 > 100 µM | HT-29 > 100 µM | SR > 100 µM | HCT-116 > 100 µM | TK-10 > 100 µM | SF-295 > 100 µM | 786-0 > 100 µM | CCRF-CEM > 100 µM | SF-268 > 100 µM | CAKI-1 > 100 µM | SNB-19 > 100 µM | COLO 205 > 100 µM | LOX IMVI > 100 µM | NCI-H522 > 100 µM | HL-60 > 100 µM | HOP-62 > 100 µM | OVCAR-3 > 100 µM | NCI-H460 > 100 µM

O=C(O)c1cnc2[nH]ccn2c1=O
inactive: HT-29 > 100 µM | SR > 100 µM | HCT-116 > 100 µM | TK-10 > 100 µM | SF-295 > 100 µM | 786-0 > 100 µM | CCRF-CEM > 100 µM | SF-268 > 100 µM | MDA-MB-435 > 100 µM | SNB-19 > 100 µM | COLO 205 > 100 µM | HL-60 > 100 µM | HOP-62 > 100 µM | OVCAR-3 > 100 µM | NCI-H460 > 100 µM
